Legend:
[1] = tested on: SKOV-3 ovarian cancer cell line; experiment: Proliferation assay (MTT); assay type: cell-based; conditions: Homo sapiens, SK-OV-3; Table 2.1; Ovarian SKOV-3; read-out: IC50
[2] = tested on: IGR3 melanoma cells (Trail-resistant); experiment: Apoptosis incidence in melanoma cells; assay type: cell-based
[3] = tested on: HPAC pancreatic cancer tumours; experiment: Pilot in vivo efficacy study, HPAC tumour bearing mice; set-up: species or system Athymic nu/nu BALB/c mice
Description: Subconfluent (80%) flasks of HPAC cells were trypsinised, washed in Hanks balanced salt solution (Sigma), resuspended in dubellco's minimal essential medium (Sigma) and an equal volume of Matrigel™ (Becton Dickson) at a density of 3.7×10^7 cells per ml. Athymic nu/nu BALB/c mice were s.c. inoculated with 3.7×10^6 HPAC cells bi-laterally midway along the dorsal surface. For the HMC (n=3 per dosage regimen) and control groups (n=2), treatment commenced five days post inoculation to allow tumour formation. HMC was formulated 20% HPBCD and delivered i.p. daily for 15 days. The control group received equivalent (weight:weight) i.p. doses of 20% HPBCD. Tumour measurements commenced on day 5 post inoculation (10×10 mm^2) and were measured in 2 dimensions, length (a) and width (b), using calipers. Tumor weight (W) was calculated by the formula W=ab2/2, where a, is the longer of the 2 measurements (Odwyer et al., 1994). Tumour proliferation curves were analyzed with respect to maximal tumour inhibition (treated/control, TIC). On sacrifice, liver, kidney, femur, stomach and colon tissue were fixed in buffered formalin, embedded in paraffin, sections cut and stained with H&E. Stained sections were then submitted to Rothwell consulting for histopathology analysis. Serum biochemistry was conducted on bloods taken from control, vehicle control and HMC treatment groups. Serum analysis was conducted by Veterinary Clinical pathology (U. Syd).
Histopathological examination of haematoxylin and eosin-stained sections cut from formalin-fixed tissues from two series of experimental mice was made. The liver, kidney, stomach and colon were examined for evidence of toxic damage, the spleen and bone marrow for evidence of myelosuppression and the tumour for degree of necrosis. A score of 0-5 was allocated to each tumour specimen for the degree of necrosis present, a 0 score representing, no necrosis and a score of 5, total necrosis. The sections were scored ‘blind’ on two separate occasions and the final score given in the results is the mean of these two scores.

[4] = tested on: ME4405 melanoma cells (TRAIL sensitive); experiment: Apoptosis incidence in melanoma cells; assay type: cell-based
PGE2 = experiment: Eicosanoid synthesis in LPS-stimulated murine macrophages (RAW 264.7); assay type: cell-based, mouse; conditions: 10 μM; negative values indicate inhibition
Experimental: (§1) The mouse macrophage cell line RAW 264.7 was cultured in DMEM supplemented with foetal calf serum (FCS), 2 mM glutamine and 50 U/ml penicillin/streptomycin. Subconfluent cells were detached from the flask by gentle scraping and 24-well plates seeded at 5×10^5 cells per well and allowed to adhere for 1 hr. Cells were then treated either test compound at a concentration of 10 μM (in 0.025% DMSO) or vehicle alone, and incubated for 1 hr. LPS 50 ng/ml (LPS—Sigma-Aldrich) was then added. After incubation for 16 hrs, culture media was collected and stored at −80° C. for ecosanoid measurements using enzyme immunometric assays (PGE2 and TXB2—Cayman Chemical).
(§2) Table 16: Percentage change in eicosanoid synthesis after incubating test compound at 10 μM compared with incubation with vehicle alone.

TXB2 = experiment: as above; assay type: cell-based, mouse; conditions: 10 μM; negative values indicate inhibition
Experimental: as §1, §2

MM200 melanoma cell line [5] = experiment: HMC combination with topotecan (synergy); assay type: cell-based; conditions: for IC50: Table 11, single agent; for Change Factor (Combined): 5-day combination
Experimental: IC50 values were determined for each cell line. Cells were seeded in 96-well plates at an appropriate cell density as determined from growth kinetics analysis and cultured for 5 days in the absence and presence of the test compounds. […] IC50 values were calculated from semi-log plots of % of control proliferation on the y-axis against log dose on the x-axis.
3-D model analysis of the cytotoxic interaction between drug A and drug B enables the representation of predicted inhibitory effect of two drugs in combination in 3 dimensions to reveal actual regions of synergy or antagonism. […] Theoretical Additivity was calculated from the cytotoxicities of drug A and drug B as monotherapies using the following formula which assumes the drugs are mutually exclusive inhibitors: […]
HMC synergy with topotecan was assessed either in combination over 5 days exposure or in sequence (HMC→topotecan) against the MM200 melanoma cell line.

MM200 melanoma cell line [6] = experiment: Proliferation assay (MTT); assay type: cell-based; conditions: read-out: IC50

Compound: COc1ccc(C2c3ccc(O)cc3OCC2c2ccc(O)cc2)cc1 (stereo not shown) [Compound 1, 3-(4-hydroxyphenyl)-4-(4-methoxyphenyl)chroman-7-ol]
- IC50 [1]: 2260 nM
- Percent Apoptosis ([2]; 24 hr exposure, 1 uM): 8%
- Percent Apoptosis ([2]; 24 hr exposure, 2 uM): 11%
- Percent Apoptosis ([2]; 24 hr exposure, 4 uM): 39%
- Percent Apoptosis ([2]; 24 hr exposure, 8 uM): 41%
- Percent Apoptosis ([2]; 24 hr exposure, 20 uM): 32%
- Percent Apoptosis ([2]; 48 hr exposure, 1 uM): 1%
- Percent Apoptosis ([2]; 48 hr exposure, 2 uM): 9%
- Percent Apoptosis ([2]; 48 hr exposure, 4 uM): 21%
- Percent Apoptosis ([2]; 48 hr exposure, 8 uM): 38%
- Percent Apoptosis ([2]; 48 hr exposure, 20 uM): 38%
- final tumour burden (mean terminal tumour mass), % T/C ([3]; 100 mg/kg i.p. daily, 15 days): 62%
- proliferation of HPAC tumours over the treatment period vs vehicle control ([3]; 100 mg/kg i.p. daily, 15 days, in 20% HPBCD): significantly retarded the proliferation of HPAC tumours
- Necrosis Score 0-5 (tumour) ([3]; individual treated mice, 0 no necrosis, 5 total necrosis, mean of two blind scores): 2
- Percent Apoptosis ([4]; 24 hr exposure, 1 uM): 0%
- Percent Apoptosis ([4]; 24 hr exposure, 2 uM): 8%
- Percent Apoptosis ([4]; 24 hr exposure, 4 uM): 9%
- Percent Apoptosis ([4]; 24 hr exposure, 8 uM): 11%
- Percent Apoptosis ([4]; 24 hr exposure, 20 uM): 19%
- Percent Apoptosis ([4]; 48 hr exposure, 1 uM): 1.5%
- Percent Apoptosis ([4]; 48 hr exposure, 2 uM): 8%
- Percent Apoptosis ([4]; 48 hr exposure, 4 uM): 42%
- Percent Apoptosis ([4]; 48 hr exposure, 8 uM): 20%
- Percent Apoptosis ([4]; 48 hr exposure, 20 uM): 18%
- Percentage change in PGE2 synthesis vs vehicle alone (PGE2): −33.8%
- Percentage change in TXB2 synthesis vs vehicle alone (TXB2): 0%
- IC50 (MM200 melanoma cell line [5]; 120 h, 5 days exposure, read-out: IC50, Combined (monotherapy)): 702 nM
- chemosensitisation of MM200 cells to topotecan (change in IC50) (MM200 melanoma cell line [5]; HMC 2 μM, HMC→topotecan sequence): > 1000 fold
- IC50 (MM200 melanoma cell line [5]; 24 hr exposure, read-out: IC50, 24 hr (monotherapy)): 18000 nM
- Change Factor (HMC first) (MM200 melanoma cell line [5]; Topotecan block, HMC 1 uM 24 hr then topotecan 24 hr): 50.656
- Change Factor (Combined) (MM200 melanoma cell line [5]; Topotecan block, with HMC 1 uM): ?HMC effect
- Change Factor (Combined) (MM200 melanoma cell line [5]; Topotecan block, with HMC 2 uM): ?HCM effect
- Change Factor (HMC first) (MM200 melanoma cell line [5]; upper block of Table 11, HMC 2 uM first, sequence): >1000
- Change Factor (Combined) (MM200 melanoma cell line [5]; upper block of Table 11, HMC 2 uM): ?HMC effect
- IC50 (MM200 melanoma cell line [6]; Table 2.1, Melanoma MM200): 700 ± 30 nM
- IC50 (MM200 melanoma cell line [6]; Table 2.2, Melanoma MM200): 1070 ± 500 nM
- IC50 (MM200 melanoma cell line [6]; Table 15, melanoma MM200, monotherapy): 1130 ± 520 nM
